Results from US20100178279A1, “Beta-Glucan Enhances Hematopoietic Progenitor Cells Engraftment and Promotes Recovery from Chemotoxicity” (Cornell University, priority 2009, published 2010).

What was measured:
[1] = system: B6D2F1 mice; assay: Peripheral blood cell recovery (complete blood cell count) after Ptx treatment
Protocol: Mice: B6D2F1 mice female, 6-8 weeks old were purchased from Jackson Laboratory, and were maintained in a pathogen-free facility at Memorial Sloan-Kettering Cancer Center (MSKCC, New York, N.Y.) with access to fresh water and food ad libitum. Certified Rodent Diet #5053 (Lab Diet) was used. All animal experiments were approved by the MSKCC Animal Care Committee. Treatments: Ptx was intraperitoneally injected (i.p) at 30 mg/kg/day over […] with cumulative dose of 90-120 mg/kg to mice. Neupogen (G-CSF) was given i.v. at 80 microg/kg at 24 hrs after the last dose of Ptx. […] Mice were weighed each day. Blood was taken from the tail vein for complete blood cell (CBC) counts. Sacrifice was performed by the CO2 method.
Complete Blood Cell Count: Approximately 20 microL of blood was taken from the tail vein after warming, for assessment of CBC by automated differential analysis using the Hemavet instrument after instrument standardization.
Statistical Analysis: Data are presented as mean percentage ±SD or mean counts ±SD. To identify the appropriate dose of Ptx, ANCOVA was used to examine significance of variation in average cell counts or percentage of change from baseline across all days for the cell type of interest in a treatment group and possible within-mouse correlation was adjusted by including mouse ID as a covariate. If overall significance by ANCOVA was shown, Tukey's method was used to determine between-day significance. To assess significance of variation across dose groups (including untreated) over the treatment interval, two-way ANOVA was used and then Bonferroni method was used to adjust for between-group multiple comparisons. In the studies of blood cell recovery, the decrease in cell count was calculated as compared to the corresponding baseline during the treatment for each mouse. The averages of the group decreases across different treatment groups were compared using two-way ANOVA to determine significance. Two sample t-tests were used to compare the difference in average percentage change at a given time point between any two treatment groups. Tukey's or Bonferroni method was used to adjust p-values for multiple comparisons where appropriate. The analyses were carried out using GraphPad Prism software version 5.01. Additional information is provided in the text.
30 mg/kg/day Ptx was given over 3 consecutive days (90 mg/kg cumulative dose) to each group. […] The Ptx+G-CSF group received one dose of intravenous G-CSF (80 ug/kg), 24 hrs after the last Ptx dose. Changes in absolute numbers of leukocytes (white blood cell count) from baseline were evaluated from post-day 1 to post-day 8 after chemotherapy. For each mouse, percent change in counts from baseline was calculated. Change from baseline across days within a treatment group was assessed by ANCOVA and within-mouse correlation was included as appropriate. Paired t-tests were used to compare any two time-points. Differences among treatment groups across the experimental period were assessed by two-way

[2] = system: Gr-1+ granulocytes/monocytes; assay: Flow cytometric oxidative burst (ROS) assay on peripheral blood ex vivo after Ptx; assay type: in vivo, mouse
Protocol: Flow Cytometric Oxidative Burst Assay: Peripheral blood was obtained by retro orbital bleeding; about 400 microL blood were collected into heparinized tubes. The respiratory burst assay was performed as described with modifications. Briefly, 100 microL blood aliquots were added to each tube, wash buffer or stimuli (opsonized E. coli, fMLP (N-formylmethionyl-leucyl-phenylalanine) were added at 20 microL. Tubes were incubated in a water bath at 37° C. for 10 mins, then 20 microL of dihydrorhodamine (DHR-123) was added and tubes were vortexed, and then incubated for another 10 mins. Red blood cells were lysed and removed after washing once. R-PE conjugated rat anti-mouse Ly-6G and Ly-6C (Gr-1, BD Biosciences) antibody was added in the presence of Mouse BD Fc Block (purified anti-mouse CD16/CD32 monoclonal antibody, 2.4G2, BD Biosciences) at 1 μg/million cells, and incubated at room temperature in the dark for 15 mins. Cells were washed; supernatants removed and 200 μL of DNA staining solution was added. The samples were analyzed by flow cytometer (FACSCalibur) using CellQuest. The initial gate was set with Gr-1 to identify granulocytes/monocytes; the percentage of responding cells was then analyzed with FlowJo software.
After brief exposure of whole blood to opsonized E. coli and the chemotactic peptide N-formyl-Met-Leu-Phe (fMLP) ex vivo, fluorescence of ROS positive cells was detected by the oxidation of the dihydrorhodamine substrate. Blood samples were collected from each group 4 days after the last dose of Ptx and again on post-day 11. […] Post-day 4 was 3 days after G-CSF injection for the Ptx+G-CSF group. The ROS responses of normal, untreated mice were also studied.

[3] = system: B6D2F1 mice; assay: Paclitaxel-induced leukopenic mouse model, serial complete blood counts; assay type: in vivo
Protocol: Certified Rodent Diet #5053 (Lab Diet) was used. […] Mice were weighed each day. […] Sacrifice was performed by the CO2 method. […]
To determine the dose of Ptx required for induction of acute hematotoxicity that also permitted spontaneous recovery, fractionated dosing at 10 to 30 mg/kg was given 3 times every other day to groups of mice. After doses greater than 15 mg/kg were found effective, we compared cumulative doses of 60 and 90 mg/kg to untreated mice (n=4 each group). Serial CBCs were obtained from each mouse. Variation was evaluated by one-way ANCOVA and within mouse correlation was included as the covariate. Pair-wise differences were evaluated by Tukey's posttest. Treatment group variation was assessed by two-way ANOVA over the interval followed by between-group comparisons using Bonferroni posttests.

[4] = Ptx 90 mg/kg, MBG 6 mg/kg/day oral or G-CSF 80 ug/kg i.v. once

CC(=O)O[C@H]1C(=O)[C@@]2(C)[C@H]([C@H](OC(=O)c3ccccc3)[C@]3(O)C[C@H](OC(=O)[C@H](O)[C@@H](NC(=O)c4ccccc4)c4ccccc4)C(C)=C1C3(C)C)[C@]1(OC(C)=O)CO[C@@H]1C[C@@H]2O [Ptx, Paclitaxel]
Leukocyte levels by post-day 5 compared to earlier post-days [1, 4]: Counts improved by post-day 5 and 8 compared to post-day 1
Lymphocyte recovery time course relative to baseline [1, 4]: baseline levels were not achieved, even by post-day 8
Neutrophil recovery time course [1, 4]: Baseline levels were achieved by post-day 8
Decrease in neutrophil level on post-day 5, between groups ([1]; early recovery period): greater
Duration of suppression of peripheral blood white blood cell counts below baseline levels ([1]; mouse, in vivo): more than 8 days
Monocyte counts below baseline at lowest point ([1]; mouse, in vivo): 77.6±13%
Unstimulated ROS production on post-day 11 compared to post-day 4 ([2]; mouse, in vivo): unchanged
ROS response to E. coli on post-day 11 compared to post-day 4 ([2]; p<0.0001): increased
ROS response to fMLP on post-day 11 compared to post-day 4 ([2]; p<0.0001): decreased
ROS response to E. coli compared to untreated mice ([2]; post-day 4): lower compared to untreated mice
Leukocyte numbers compared to untreated mice ([3]; cumulative Ptx dose 60 mg/kg): fewer leukocytes
Neutrophil counts across all days ([3]; cumulative Ptx dose 60 mg/kg, ANCOVA, no pair-wise comparisons significant): overall drop in neutrophil counts across all days was significant
Leukocyte numbers compared to untreated mice ([3]; cumulative Ptx dose 90 mg/kg): lower leukocyte numbers on days 3, 4, and 5
Lymphocyte numbers compared to the untreated group ([3]; cumulative Ptx dose 90 mg/kg): lower over days 3, 4, and 5
Lymphocytes compared to baseline ([3]; cumulative Ptx dose 90 mg/kg): lower on day 8 compared to baseline
Neutrophil counts compared to baseline ([3]; cumulative Ptx dose 90 mg/kg): counts were significantly lower on days 4 and 5 compared to baseline
Neutrophils compared to the untreated group ([3]; cumulative Ptx dose 90 mg/kg (higher dose)): more reduced
Changes in leukocyte numbers within group ([3]; cumulative Ptx dose 90 mg/kg, one-way ANCOVA): produced significant changes in leukocyte numbers
Fractionated Ptx dose found effective for induction of acute hematotoxicity ([3]; given 3 times every other day): greater than 15 mg/kg

B1: G-CSF: Neupogen (G-CSF) from Amgen; recombinant human G-CSF (protein, UniProt P09919 31-207, looked up)
Granulocyte …: TPLGPASSLPQSFLLKCLEQVRKIQGDGAALQEKLVSECATYKLCHPEELVLLGHSLGIPWAPLSSCPSQALQLAGCLSQLHSGLFLYQGLLQALEGISPELGPTLDTLQLDVADFATTIWQQMEELGMAPALQPTQGAMPAFASAFQRRAGGVLVASHLQSFLEVSYRVLRHLAQP
modifications: filgrastim, N-terminal methionine
Decline in leukocytes on post-day 2 ([1]; Ptx 90 mg/kg, 24 hrs after G-CSF injection): not observed
Effect on Ptx-induced increase of platelet numbers ([1]; mouse, in vivo): also not affected
